Source: US20080051387A1, “TETRAHYDROPYRIDO[3,4-D]PYRIMIDINES AND RELATED ANALOGUES” (priority 2006, published 2008)

molecular target: T1, chimeric human H3 receptor (Homo sapiens, UniProt Q9Y5N1); experiment: Chimeric human H3 receptor screening GTP binding assay (inhibition of histamine-stimulated GTP-gamma35S binding, Example 8); assay type: biochemical; details: 1 h; assay described in Example 8; symbol "!" in column headed Ki; read-out: Ki ("!": percent inhibition of agonist-induced GTP-gammaS binding to H3)
T1 construct: rat Galpha-i2 (Gnai2, rat); made in house; host or cells: Sf9 insect cells (baculovirus); P2 membranes
Procedure, shortened: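 Compound tested at 4 μM against 1 μM histamine stimulation; 125 pM GTP-gamma35S binding measured by filtration and scintillation after 60 min at room temperature. Membranes from Sf9 cells expressing chimeric human H3 plus G-protein subunits, in Tris pH 7.4/NaCl/MgCl2/GDP buffer; values are % inhibition after nonspecific subtraction.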

T1 sequence (Q9Y5N1 with tags, fused parts or gaps): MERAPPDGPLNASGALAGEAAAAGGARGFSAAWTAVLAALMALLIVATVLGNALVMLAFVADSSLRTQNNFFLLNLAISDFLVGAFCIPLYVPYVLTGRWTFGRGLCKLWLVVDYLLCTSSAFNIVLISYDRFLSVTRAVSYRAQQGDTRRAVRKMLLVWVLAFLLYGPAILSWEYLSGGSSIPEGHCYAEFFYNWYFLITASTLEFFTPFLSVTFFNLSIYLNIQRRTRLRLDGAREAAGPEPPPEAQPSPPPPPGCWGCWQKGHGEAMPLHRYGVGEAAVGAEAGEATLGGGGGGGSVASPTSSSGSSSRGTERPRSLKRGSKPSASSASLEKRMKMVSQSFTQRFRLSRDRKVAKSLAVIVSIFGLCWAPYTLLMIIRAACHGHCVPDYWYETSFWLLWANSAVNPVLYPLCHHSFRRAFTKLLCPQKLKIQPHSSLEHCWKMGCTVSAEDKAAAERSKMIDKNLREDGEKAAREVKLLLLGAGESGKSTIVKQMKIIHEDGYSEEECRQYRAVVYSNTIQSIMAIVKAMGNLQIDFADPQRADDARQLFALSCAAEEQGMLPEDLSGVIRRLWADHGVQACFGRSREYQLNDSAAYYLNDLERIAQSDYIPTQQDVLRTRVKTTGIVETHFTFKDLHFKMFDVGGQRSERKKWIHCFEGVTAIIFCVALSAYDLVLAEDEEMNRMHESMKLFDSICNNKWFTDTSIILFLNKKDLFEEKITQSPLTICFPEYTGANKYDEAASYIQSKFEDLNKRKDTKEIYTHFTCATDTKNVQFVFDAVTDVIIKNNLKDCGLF

Inhibition at 4 µM, ≥ 90%:
Cc1nc(-c2ccc(C(F)(F)F)cc2)sc1C(=O)N1CCc2cnc(N3CCN(C4CCC4)CC3)nc2CC1 [Compound 524, 2-(4-cyclobutylpiperazin-1-yl)-7-({4-methyl-2-[4-(trifluoromethyl)phenyl]-1,3-thiazol-5-yl}carbonyl)-6,7,8,9-tetrahydro-5H-pyrimido[4,5-d]azepine]
CCCCOc1ccccc1C(=O)N1CCc2cnc(N3CCN(C4CCC4)CC3)nc2CC1 [Compound 417, 7-(2-butoxybenzoyl)-2-(4-cyclobutylpiperazin-1-yl)-6,7,8,9-tetrahydro-5H-pyrimido[4,5-d]azepine]
O=C(c1ccsc1)N1CCc2cnc(N3CCN(C4CCC4)CC3)nc2CC1 [Compound 464, 2-(4-cyclobutylpiperazin-1-yl)-7-(3-thienylcarbonyl)-6,7,8,9-tetrahydro-5H-pyrimido[4,5-d]azepine]
O=C(c1cc(F)ccc1F)N1CCc2cnc(N3CCN(C4CCC4)CC3)nc2CC1 [Compound 391, 2-(4-cyclobutylpiperazin-1-yl)-7-(2,5-difluorobenzoyl)-6,7,8,9-tetrahydro-5H-pyrimido[4,5-d]azepine]
CCCc1c(C(=O)N2CCc3cnc(N4CCN(C5CCC5)CC4)nc3CC2)cnn1-c1ccc(Cl)cc1 [Compound 512, 7-{[1-(4-chlorophenyl)-5-propyl-1H-pyrazol-4-yl]carbonyl}-2-(4-cyclobutylpiperazin-1-yl)-6,7,8,9-tetrahydro-5H-pyrimido[4,5-d]azepine]
O=C(/C=C/c1ccc(-c2ccccc2)cc1)N1CCc2cnc(N3CCN(C4CCC4)CC3)nc2CC1 [Compound 556, 7-[(2E)-3-biphenyl-4-ylprop-2-enoyl]-2-(4-cyclobutylpiperazin-1-yl)-6,7,8,9-tetrahydro-5H-pyrimido[4,5-d]azepine]
O=C(c1ccc(-n2cccc2)nc1)N1CCc2cnc(N3CCN(C4CCC4)CC3)nc2CC1 [Compound 480, 2-(4-cyclobutylpiperazin-1-yl)-7-{[6-(1H-pyrrol-1-yl)pyridin-3-yl]carbonyl}-6,7,8,9-tetrahydro-5H-pyrimido[4,5-d]azepine]
O=C(c1cccc(C(F)(F)F)c1Cl)N1CCc2cnc(N3CCN(C4CCC4)CC3)nc2CC1 [Compound 437, 7-[2-chloro-3-(trifluoromethyl)benzoyl]-2-(4-cyclobutylpiperazin-1-yl)-6,7,8,9-tetrahydro-5H-pyrimido[4,5-d]azepine]
CCCc1ccc(C(=O)N2CCc3cnc(N4CCN(C5CCC5)CC4)nc3CC2)s1 [Compound 452, 2-(4-cyclobutylpiperazin-1-yl)-7-[(5-propyl-2-thienyl)carbonyl]-6,7,8,9-tetrahydro-5H-pyrimido[4,5-d]azepine]
O=C(/C=C/c1ccc(Cl)cc1)N1CCc2cnc(N3CCN(C4CCC4)CC3)nc2CC1 [Compound 549, 7-[(2E)-3-(4-chlorophenyl)prop-2-enoyl]-2-(4-cyclobutylpiperazin-1-yl)-6,7,8,9-tetrahydro-5H-pyrimido[4,5-d]azepine]
CC(C)Oc1ncccc1C(=O)N1CCc2cnc(N3CCN(C4CCC4)CC3)nc2CC1 [Compound 546, 2-(4-cyclobutylpiperazin-1-yl)-7-[(2-isopropoxypyridin-3-yl)carbonyl]-6,7,8,9-tetrahydro-5H-pyrimido[4,5-d]azepine]
C=CCSc1ncccc1C(=O)N1CCc2cnc(N3CCN(C4CCC4)CC3)nc2CC1 [Compound 499, 7-{[2-(allythio)pyridin-3-yl]carbonyl}-2-(4-cyclobutylpiperazin-1-yl)-6,7,8,9-tetrahydro-5H-pyrimido[4,5-d]azepine]
Nc1cc(Cl)ccc1C(=O)N1CCc2cnc(N3CCN(C4CCC4)CC3)nc2CC1 [Compound 540, 5-chloro-2-{[2-(4-cyclobutylpiperazin-1-yl)-5,6,8,9-tetrahydro-7H-pyrimido[4,5-d]azepin-7-yl]carbonyl}aniline]
O=C(c1cccc(Cl)c1Cl)N1CCc2cnc(N3CCN(C4CCC4)CC3)nc2CC1 [Compound 440, 2-(4-cyclobutylpiperazin-1-yl)-7-(2,3-dichlorobenzoyl)-6,7,8,9-tetrahydro-5H-pyrimido[4,5-d]azepine]

same assay, conditions: 1 h; assay of Example 8; symbol "!" in column headed Ki; read-out: percent inhibition of agonist-induced GTP-gammaS binding to H3

Inhibition at 4 µM, ≥ 90%:
O=C(c1ccc(OC(F)F)cc1)N1CCc2cnc(N3CCN(C4CCC4)CC3)nc2CC1 [Compound 366, 2-(4-cyclobutylpiperazin-1-yl)-7-[4-(difluoromethoxy)benzoyl]-6,7,8,9-tetrahydro-5H-pyrimido[4,5-d]azepine]
c1cncc(CN2CCc3cnc(N4CCN(C5CCC5)CC4)nc3CC2)c1 [Compound 239, 2-(4-cyclobutylpiperazin-1-yl)-7-(pyridin-3-ylmethyl)-6,7,8,9-tetrahydro-5H-pyrimido[4,5-d]azepine]
CC(Oc1ccc(Cl)cc1Cl)C(=O)N1CCc2cnc(N3CCN(C4CCC4)CC3)nc2CC1 (stereo not drawn) [Compound 338, 2-(4-cyclobutylpiperazin-1-yl)-7-[2-(2,4-dichlorophenoxy)propanoyl]-6,7,8,9-tetrahydro-5H-pyrimido[4,5-d]azepine]
COc1ccccc1OCC(=O)N1CCc2cnc(N3CCN(C4CCC4)CC3)nc2CC1 [Compound 323, 2-(4-cyclobutylpiperazin-1-yl)-7-[(2-methoxyphenoxy)acetyl]-6,7,8,9-tetrahydro-5H-pyrimido[4,5-d]azepine]
Cc1cccc(C(=O)N2CCc3cnc(N4CCN(C5CCC5)CC4)nc3CC2)c1 [Compound 187, 2-(4-cyclobutylpiperazin-1-yl)-7-(3-methylbenzoyl)-6,7,8,9-tetrahydro-5H-pyrimido[4,5-d]azepine]
O=C(c1ccoc1)N1CCc2cnc(N3CCN(C4CCC4)CC3)nc2CC1 [Compound 197, 2-(4-cyclobutylpiperazin-1-yl)-7-(3-furoyl)-6,7,8,9-tetrahydro-5H-pyrimido[4,5-d]azepine]
O=C(c1ccc(OC(F)(F)F)cc1)N1CCc2cnc(N3CCN(C4CCC4)CC3)nc2CC1 [Compound 373, 2-(4-cyclobutylpiperazin-1-yl)-7-[4-(trifluoromethoxy)benzoyl]-6,7,8,9-tetrahydro-5H-pyrimido[4,5-d]azepine]
O=C(C1COc2ccccc2O1)N1CCc2cnc(N3CCN(C4CCC4)CC3)nc2CC1 (stereo not drawn) [Compound 341, 2-(4-cyclobutylpiperazin-1-yl)-7-(2,3-dihydro-1,4-benzodioxin-2-ylcarbonyl)-6,7,8,9-tetrahydro-5H-pyrimido[4,5-d]azepine]

same assay, conditions: symbol ! in Ki; test compound 4 μM, 1 μM histamine; read-out: percent inhibition of agonist-induced GTP-gammaS binding to H3

Inhibition at 4 µM, ≥ 90%:
O=C(C1CCCCCC1)N1CCc2c(ncnc2N2CCN(C3CCC3)CC2)C1 [Compound 56, 4-(4-cyclobutylpiperazin-1-yl)-7-(cycloheptylcarbonyl)-5,6,7,8-tetrahydropyrido[3,4-d]pyrimidine]
c1nc2c(c(N3CCN(C4CCC4)CC3)n1)CCN(Cc1ccc(N3CCCC3)cc1)CC2 [Compound 182, 4-(4-cyclobutylpiperazin-1-yl)-7-(4-pyrrolidin-1-ylbenzyl)-6,7,8,9-tetrahydro-5H-pyrimido[4,5-d]azepine]
O=C(/C=C/c1ccccc1)N1CCc2c(ncnc2N2CCN(C3CCC3)CC2)C1 [Compound 62, 4-(4-cyclobutylpiperazin-1-yl)-7-[(2E)-3-phenylprop-2-enoyl]-5,6,7,8-tetrahydropyrido[3,4-d]pyrimidine]
COc1cccc(CN2CCc3ncnc(N4CCN(C5CCC5)CC4)c3CC2)c1OC [Compound 175, 4-(4-cyclobutylpiperazin-1-yl)-7-(2,3-dimethoxybenzyl)-6,7,8,9-tetrahydro-5H-pyrimido[4,5-d]azepine]
CCn1nc(C)cc1C(=O)N1CCc2c(ncnc2N2CCN(C3CCC3)CC2)C1 [Compound 40, 4-(4-cyclobutylpiperazin-1-yl)-7-[(1-ethyl-3-methyl-1H-pyrazol-5-yl)carbonyl]-5,6,7,8-tetrahydropyrido[3,4-d]pyrimidine]
Cc1cccc(C(=O)N2CCc3c(ncnc3N3CCN(C4CCC4)CC3)C2)c1 [Compound 23, 4-(4-cyclobutylpiperazin-1-yl)-7-(3-methylbenzoyl)-5,6,7,8-tetrahydropyrido[3,4-d]pyrimidine]
CC(C1CC1)N1CCc2c(ncnc2N2CCN(C3CCC3)CC2)C1 (stereo not drawn) [Compound 124, 4-(4-cyclobutylpiperazin-1-yl)-7-(1-cyclopropylethyl)-5,6,7,8-tetrahydropyrido[3,4-d]pyrimidine]
CCCC(C)C(=O)N1CCc2c(ncnc2N2CCN(C3CCC3)CC2)C1 (stereo not drawn) [Compound 61, 4-(4-cyclobutylpiperazin-1-yl)-7-(2-methylpentanoyl)-5,6,7,8-tetrahydropyrido[3,4-d]pyrimidine]
CC(C)c1ccc(CN2CCc3ncnc(N4CCN(C5CCC5)CC4)c3CC2)cc1 [Compound 159, 4-(4-cyclobutylpiperazin-1-yl)-7-(4-isopropylbenzyl)-6,7,8,9-tetrahydro-5H-pyrimido[4,5-d]azepine]
CC(C)CC(C)N1CCc2c(ncnc2N2CCN(C3CCC3)CC2)C1 (stereo not drawn) [Compound 116, 4-(4-cyclobutylpiperazin-1-yl)-7-(1,3-dimethylbutyl)-5,6,7,8-tetrahydropyrido[3,4-d]pyrimidine]
O=C(C1CCC1)N1CCc2c(ncnc2N2CCN(C3CCC3)CC2)C1 [Compound 53, 7-(cyclobutylcarbonyl)-4-(4-cyclobutylpiperazin-1-yl)-5,6,7,8-tetrahydropyrido[3,4-d]pyrimidine]
